The target in data set [1] is REGα-activated 20S proteasome (Homo sapiens, UniProt P25786+P25788). The data set is described as follows: Peptidyl substrate LLVY/LRR degradation assay, REGα-activated 20S proteasome. In kind it is biochemical. Conditions: 20S REGα. The procedure: The reaction mixture contained the indicated combinations of 20S proteasome (0.125 μg), 11S (0.0625 μg), and RLY01 (20 μM). This mixture was incubated on ice for 45 minutes in buffer (10 mM Tris-HCl, 10 mM KCl, 4% glycerol, 1 mM DTT). Then, peptidyl substrates (Suc-LLVY-AMC/Boc-LRR-AMC) were incubated for 15–20 minutes in the mixture in a 37°C thermostatic fluorescence spectrophotometer. The amount of AMC during the reaction was measured fluorometrically (excitation of 360 nm and emission of 460 nm for AMC) with a fluorescence spectrophotometer. Proteasome activity was assayed in the presence of the indicated peptides and proteins and normalized by setting to 100% the value obtained in the presence of 20S proteasome and 11S. The respective final concentrations of the 20S proteasome and REGγ or REGα were set up so that the peptidase activities were not fully activated (i.e., 11S was limiting in the assay). At the final concentration used for RLY01, the inhibitory effect was maximal. Peptides used were substrates of the following peptidase activities of the 20S proteasome: chymotrypsin-like activity, Suc-LLVY-AMC (LLVY); trypsin-like activity, Boc-LRR-AMC (LRR).

Data set [2] relates to ubiquitination levels, polyubiquitination of p21. The data set is described as follows: Ubiquitination detection / p21 immunoprecipitation. The class given is cell-based, human. The following applies: 5 μM, 8 hours. How it is done: Protein extracts were loaded onto SDS polyacrylamide gels. Gels were transferred onto nitrocellulose membranes, and the membranes were blocked for 1 hour. After overnight incubation with primary antibody at 4°C, the membranes were washed and probed with fluorescent IRDye 800 CW goat anti-rabbit IgG (1:10,000), IRDye 800 CW goat anti-mouse (1:10,000), and IRDye 680 RD goat anti-mouse IgG (1:5,000) antibodies (Cell Signaling Technology). The membranes were then imaged with the Odyssey Infrared Imaging System (LI-COR Biosciences). The primary antibodies used were mouse anti–β-actin (MBL, M177-3), rabbit anti-REGγ (Abcam, ab157157), rabbit anti-KRAS (Abcam, ab275876), rabbit anti-NRF2 (Abcam, ab137550), mouse anti-GAPDH (Proteintech, 60004-1-Ig), anti-FLAG tag (Solarbio, K200001M), anti-HA tag (Abcam, ab9110), rabbit anti-α7 (Abcam, ab133502), rabbit anti-LATS1 (Cell Signaling Technology, 3477), rabbit anti-IκBε (Abcam, ab13413), rabbit anti-p16 (Proteintech, 10883-1-AP), mouse anti-p21 (BD Biosciences, 612234), rabbit anti-PARP (Cell Signaling Technology, 9542), and rabbit anti–caspase-3 ([…], 9662).
Cells were washed with PBS and lysed with RIPA lysis buffer (50 mM Tris-HCl [pH 7.5], 150 mM NaCl, 1% NP-40, and 0.1% SDS). Cell lysates were then centrifuged for 20 minutes at 13,400g at 4°C. […]

A further data set is described as follows: Pharmacokinetics study. Conditions: plasma, 20 mg/kg single i.p. dose, male BALB/c mice. The class given is in vivo. The procedure:
Pharmacokinetics of RLY01 was analyzed in male BALB/c mice (n = 3). Plasma concentration was determined using liquid chromatography–tandem mass spectrometry (LC-MS/MS) after a single intraperitoneal injection dose (20 mg/kg, i.p.) of a compound as a clear solution (2% DMSO plus 2% Tween-80 plus 96% saline) at a volume of 10 mL/kg. Blood samples were collected into a heparinized test tube at each time point (0.083, 0.25, 0.5, 1.0, 2.0, 4.0, 8.0, and 24 hours) and centrifuged at 8,000g for 10 minutes to generate plasma samples. The blood samples were temporarily put on ice. Plasma samples were put on dry ice for 2 hours and transferred to –20°C. After the completion of the last sampling, all samples were stored at –80°C. LC-MS/MS methods to quantify compound in plasma samples were developed. The samples were analyzed with an Agilent 1290 Infinity II HPLC system coupled to a 6470 LC/TQ mass spectrometer (Agilent), which was equipped with an Applied Biosystems electrospray ionization source and operated with Analysis of Mass Hunter Workstation Data Acquisition (Agilent). Chromatographic separation was fitted with an Agilent Poroshell 120 EC-C18, 2.1 × 50 mm, 1.9 μm column. The mobile phase consisted of 0.1% formic acid in water and 0.1% formic acid in acetonitrile (ACN). Standard curves for drug quantification were prepared by spiking known concentrations of the compound into control plasma. […]

For another data set, the system named is HCT15 cells. Put plainly: Cell viability assay (CCK-8). The class given is cell-based. Conditions: Homo sapiens, HCT-15.
Another data set relates to SW620 cells. The data set is described as follows: Cell viability assay (CCK-8). The class given is cell-based. The following applies: Homo sapiens, SW-620; SW620, Colon; Supplemental Table 4.
Another data set has as its system HCC4006 cells. Put plainly: Cell viability assay (CCK-8). In kind it is cell-based. Conditions: Homo sapiens; HCC4006 (KRAS-WT); 72 hours.
For another data set, the system named is HLF1 cells. Put plainly: Cell viability assay (CCK-8). In kind it is cell-based. The following applies: Homo sapiens; HLF1 (Normal cells); 72 hours.
Another data set relates to HPNE cells. Put plainly: Cell viability assay (CCK-8). The class given is cell-based. Conditions: Homo sapiens; HPNE (Normal cells); 72 hours.
In another data set the test system is A427 cells. Put plainly: Cell viability assay (CCK-8). The class given is cell-based. The following applies: Homo sapiens, A-427; A427, Lung; Supplemental Table 4.
The next data set deals with H727 cells. Put plainly: Cell viability assay (CCK-8). In kind it is cell-based. The following applies: Homo sapiens, NCI-H727; H727, Lung; Supplemental Table 4.
Another data set has as its system T24 cells. Put plainly: Cell viability assay (CCK-8). The class given is cell-based. Conditions: Homo sapiens, T-24; T24, Bladder; Supplemental Table 4.

Structures are written as SMILES. Several values for one entry are separate records, joined by “and”; a condition that tells them apart may be missing. Identical values can stand only once.

Description for A427 cells: (§1) Cells were seeded into 96-well plates at a density of 1,500 cells per well. Cells were then cultivated at 37°C for different periods (0 hours, 24 hours, 48 hours, 72 hours, 96 hours). Upon measurement, 10 μL CCK-8 (Yeasen, 40203ES80) mixed with 100 μL serum-free medium was added to each well and incubated for 1 hour at 37°C. Plates were shaken, and optical density values were determined at 450 nm using a microplate reader (BioTek, Synergy Neo2).
Description for H727 cells: as §1
Description for HCC4006 cells: as §1
Description for HCT15 cells: as §1
Description for HLF1 cells: (§2) Cells were seeded into 96-well plates at a density of 1,500 cells per well. […] Upon measurement, 10 μL CCK-8 (Yeasen, 40203ES80) mixed with 100 μL serum-free medium was added to each well and incubated for 1 hour at 37°C. Plates were shaken, and optical density values were determined at 450 nm using a microplate reader (BioTek, Synergy Neo2).
Description for HPNE cells: as §2
Description for SW620 cells: as §1
Description for T24 cells: as §1

`COc1ccc(C2C(C#N)=C(N)Oc3[nH]ncc32)cc1COc1ccc(Cl)cc1` (centres unmarked) [RLY01]: the “LLVY Activity(%)” value in data set [1] was 92.6533% and 97.2289% and 95.2129%. The “polyubiquitination level of p21” value in [2] (anti-p21 immunoprecipitation) is on record as “did not alter the polyubiquitination level of p21”. Also, the ubiquitination levels entry in data set [2] (HCT116-WT cells) is reported as “did not affect ubiquitination levels”. This compound showed a half-life in the data set “Pharmacokinetics study” (mouse, ip) of 4.14 h. In addition, in “Pharmacokinetics study”, the maximum concentration is 6,440 ng/mL. For the same compound, the IC50 stood at 5.53 µM with HCT15 cells (HCT15 (KRAS-MUT), 72 hours); 5.53 µM in the data set with HCT15 cells (HCT15, Colon, Supplemental Table 4); 5.97 µM in the data set with SW620 cells; 32.3 µM with HCC4006 cells; 46.1 µM with HLF1 cells; 68.7 µM in the data set with HPNE cells. The values for the 50% inhibitory concentration (IC50) with A427 cells, with H727 cells and in the data set on T24 cells were 13.8 µM, 23.2 µM and 9.9 µM, respectively.

The half-life is how long it takes for the measured level to halve. High values mean slow loss, low ones fast loss. One may read the IC50 as the concentration that gives 50% inhibition.

Values taken from publication PMC11910216, “Targeting ubiquitin-independent proteasome with small molecule increases susceptibility in pan-KRAS–mutant cancer models” (The Journal of Clinical Investigation, 2025).
